SMILES strings stand for the structures. Where a name gives a salt, the structure may show the parent alone.

Series [1] in a line: Screening of crystallization inhibitors: sorafenib content in polymer carrier/cholate medium over time. Format: physicochemical. The conditions noted are these: pH 6.8 phosphate + 0.1% SDS with the inhibitor, 37° C.
Series [2] in a line: Solubility test of solid dispersions (pH 1.0 hydrochloric acid, pH 6.8 phosphate buffer, FaSSGF, FaSSIF). The conditions noted are these: pH 1.0 hydrochloric acid solution, 37° C., main drug:carrier 1:3. Format: physicochemical. The method, then:
An appropriate amount of solid dispersion (SD) was added to a pH 1.0 hydrochloric acid solution and a pH 6.8 phosphate buffer solution, while keeping the SD in excess, and shaken at 37° C. in a shaker at 300 rpm.

Turning to `C[C@H](CCC(=O)NCC(=O)[O-])[C@H]1CC[C@H]2[C@@H]3[C@H](O)C[C@@H]4C[C@H](O)CC[C@]4(C)[C@H]3C[C@H](O)[C@]12C.[Na+]` [0.3% SGC, sodium glycocholate], the Sorafenib content detection in series [1] (0.5 h) is 14.32 µg/mL; in series [1] (1 h) it was 5.88 µg/mL; in series [1] (2 h), 4.32 µg/mL; in series [1] (3 h) it was 3.98 µg/mL; in series [1] (4 h), 3.77 µg/mL; in series [1] (6 h), 3.57 µg/mL.

Turning to `C[C@H](CCC(=O)NCCS(=O)(=O)[O-])[C@H]1CC[C@H]2[C@@H]3[C@@H](O)C[C@@H]4C[C@H](O)CC[C@]4(C)[C@H]3CC[C@]12C.[Na+]` [0.3% STCDC], the Sorafenib content detection in series [1] (0.5 h) is 14.43 µg/mL; in series [1] (1 h) it was 6.22 µg/mL; in series [1] (2 h), 4.69 µg/mL; in series [1] (3 h), 4.79 µg/mL; in series [1] (4 h), 4.81 µg/mL; in series [1] (6 h), 5.79 µg/mL.

On to `C[C@H](CCC(=O)NCCS(=O)(=O)[O-])[C@H]1CC[C@H]2[C@@H]3CC[C@@H]4C[C@H](O)CC[C@]4(C)[C@H]3C[C@H](O)[C@]12C.[Na+]` [0.3% STDC, sodium taurodeoxycholate], for which the Sorafenib content detection in series [1] (0.5 h) came to 47.72 µg/mL; in series [1] (1 h), 25.90 µg/mL; in series [1] (2 h), 11.19 µg/mL; in series [1] (3 h) it was 7.82 µg/mL; in series [1] (4 h) it was 6.58 µg/mL; in series [1] (6 h) it was 5.90 µg/mL.

As for `CNC(=O)c1cc(Oc2ccc(NC(=O)Nc3ccc(Cl)c(C(F)(F)F)c3)cc2)ccn1` [TSSLFN, Sorafenib tosylate], the Solubility (in general, the dissolved amount per volume that the medium holds) stood at 3.7 µg/mL in series [2] (0.5 h), 4.1 µg/mL in series [2] (2 h) and 4.1 µg/mL in series [2] (4 h).

Turning to `C[C@H](CCC(=O)NCC(=O)[O-])[C@H]1CC[C@H]2[C@@H]3CC[C@@H]4C[C@H](O)CC[C@]4(C)[C@H]3C[C@H](O)[C@]12C.[Na+]` [0.3% SGDC, sodium glycodeoxycholate], the Sorafenib content detection in series [1] (0.5 h) worked out at 15.78 µg/mL; in series [1] (1 h), 6.28 µg/mL; in series [1] (2 h), 4.11 µg/mL; in series [1] (3 h), 4.01 µg/mL; in series [1] (4 h) it was 4.04 µg/mL; in series [1] (6 h), 3.87 µg/mL.

As to `C[C@H](CCC(=O)NCC(=O)[O-])[C@H]1CC[C@H]2[C@@H]3[C@H](O)C[C@@H]4C[C@H](O)CC[C@]4(C)[C@H]3CC[C@]12C.[Na+]` [0.3% SGCDC, sodium glycochenodeoxycholate], the Sorafenib content detection in series [1] (0.5 h) was 61.59 µg/mL; in series [1] (1 h), 47.08 µg/mL; in series [1] (2 h), 10.41 µg/mL; in series [1] (3 h), 5.38 µg/mL; in series [1] (4 h), 4.28 µg/mL; in series [1] (6 h), 3.68 µg/mL.

These data come from patent publication US20230310393A1 (Tianjin Creatron Biotechnology Co., Ltd., priority 2020, published 2023).
